Laboratory results: patent US20090099346A1 (priority 2003, published 2009)

Tests used:
[1] = Thermal stability study under accelerated storage conditions (HPLC assay, doxorubicinone quantity, total impurities); type: physicochemical
Procedure: The type II crystalline epirubicin hydrochloride obtained in Example 1 and type I crystalline epirubicin hydrochloride obtained in reference Example 3 were each kept at a temperature 40° C. for six months, thereby simulating accelerated storage conditions. The thermal stability was investigated and measured by studying the following parameters: (1) assay (HPLC method), (2) doxorubicinone quantity (doxorubicinone, an aglycone of epirubicin, is the major epirubicin degradation product), and (3) total impurities.

[2] = Powder X-ray diffraction of commercial batches after accelerated storage; type: physicochemical; conditions: 3 commercial batches, 6 months of accelerated storage conditions (40° C.)
Procedure: In this example, powder X-ray diffraction spectra of crystalline epirubicin hydrochloride of type I and type II were obtained. Powder X-ray diffraction spectra were measured using a Rigaku Cu Anode X-ray Diffractometer (MiniFlex). The conditions for analysis of the samples was as follows:
FIGS. 16, 18 and 20 illustrate the X-Ray Diffraction spectra of the mentioned above 3 commercial batches, undergone 6 months of Accelerated storage conditions (40° C.).

- thermal stability by X-Ray Diffraction spectra [2]: thermally stable
Compound: COc1cccc2c1C(=O)c1c(O)c3c(c(O)c1C2=O)C[C@@](O)(C(=O)CO)C[C@@H]3OC1CC(N)C(O)C(C)O1.Cl (stereo partly drawn) [epirubicin hydrochloride]
- shelf life ([1]; concluded from the 40° C. storage study, compared with type I): longer than the shelf life of type I crystalline epirubicin hydrochloride
- thermal stability ([1]; kept at 40° C. for six months, compared with type I crystalline epirubicin hydrochloride): much greater thermal stability than type I crystalline epirubicin hydrochloride
